Results as given in article PMC8583936, “Machine Learning Assisted Approach for Finding Novel High Activity Agonists of Human Ectopic Olfactory Receptors” (International Journal of Molecular Sciences, 2021).
Values joined by “and” are separate entries in the source; they are usually repeats but may differ in a detail not shown here. Identical values can stand only once.

Tests used:
[1] = target: T1, OR1A1 (Homo sapiens, UniProt Q9P1Q5); details: cited from earlier work
T1 sequence (Q9P1Q5 1-309): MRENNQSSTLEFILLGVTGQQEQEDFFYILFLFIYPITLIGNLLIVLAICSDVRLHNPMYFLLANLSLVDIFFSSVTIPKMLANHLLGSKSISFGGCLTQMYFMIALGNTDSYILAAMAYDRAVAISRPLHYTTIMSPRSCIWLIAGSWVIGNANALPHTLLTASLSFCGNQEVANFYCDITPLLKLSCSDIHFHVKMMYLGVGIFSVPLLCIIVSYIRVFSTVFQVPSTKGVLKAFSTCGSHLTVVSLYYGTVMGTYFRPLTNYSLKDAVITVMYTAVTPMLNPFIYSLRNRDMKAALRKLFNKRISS

[2] = target: T2, OR2W1 (Homo sapiens, UniProt Q9Y3N9); details: cited from earlier work
T2 sequence (Q9Y3N9 1-320): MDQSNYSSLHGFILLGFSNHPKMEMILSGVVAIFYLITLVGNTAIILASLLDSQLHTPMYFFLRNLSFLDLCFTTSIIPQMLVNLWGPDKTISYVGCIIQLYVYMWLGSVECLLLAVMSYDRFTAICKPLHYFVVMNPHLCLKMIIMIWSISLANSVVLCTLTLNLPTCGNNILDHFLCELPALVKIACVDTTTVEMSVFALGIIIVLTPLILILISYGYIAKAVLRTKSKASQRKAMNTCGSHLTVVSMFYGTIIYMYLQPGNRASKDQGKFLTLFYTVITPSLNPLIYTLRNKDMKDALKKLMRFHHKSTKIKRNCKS

[3] = target: T1, OR1A1; experiment: Dual-Glo luciferase reporter gene assay, OR1A1 in Hana3A cells; assay type: cell-based; design: The open reading frames of ORs were amplified using Phusion polymerase; Rho-tag (first 20 amino acids of human rhodopsin) (N); expressed in transfected cells; host or cells: Hana3A cells (derived from HEK293T), pCI vector; co-transfected with human RTP1S, M3 receptor, CRE-Luc and SV40-RL; details: OR1A1; for normilazed value = (L-400/R-400): three replicates
Procedure: (§1) Hana3A cells were maintained in minimal essential medium containing 10% FBS (vol/vol) with penicillin-streptomycin and amphotericin B (1/200 each vol/vol) at 37 °C and 5% CO2. Hana3A cells are derived from HEK293T [57] and are optimized for OR studies as shown in several studies, compared to earlier OR expression in Sf9 insect cells in Gat et al., and in Xenopus oocytes, COS-7, PC12h and CHO-K1 cells in Katada et al..
(§2) The Dual-Glo luciferase assay system (Promega, Madison, WI, USA) was used to evaluate the functionality of wild-type OR1A1 and OR2W1 in an in vitro system. The open reading frames of ORs were amplified using Phusion polymerase (Thermo Fisher Scientific, Waltham, MA, USA). Amplified fragments were cloned into pCI expression vector (Promega, Madison, WI, USA) containing the sequence encoding the first 20 amino acids of human rhodopsin (Rho-tag) at N-terminal. Hana3A cells have been cultured and plated the day before transfection with 6 mL at 1/10 of a 100% confluence 100 mm plate into 96-well plates coated with poly D-lysine. After overnight incubation, the required genes were transfected using, for each plate, 5 ng SV40-RL, 10 ng CRE-Luc, 5 ng human RTP1S [72], 2.5 ng M3 receptor [73] and 5 ng of receptor (OR1A1, OR2W1 or empty vector Rho-pCI) plasmid. After around 18 h of transfection, cells were stimulated during 3.5 h by 25 µL of odorant diluted in CD293 + 1% glutamine + 30 µM CuCl2. Odorants were obtained from Sigma Aldrich (St. Louis, MO, USA) and diluted at 1 M concentration in DMSO as stock solutions. […] The luminescence of Firefly (Luc) and Renilla (Rluc) luciferase, were then sequentially monitored by injecting the corresponding substrate following the supplier’s protocol. The activity in each well was normalized as (Luc-400)/(Rluc-400). The response of the receptor was also normalized to its basal activity as (NLX/NL0)-1 where NL0 is the normalized luminescence value at 0 µM of odorant and NLX the value at X µM. […] Raw results were first analyzed with Excel (Microsoft Corporation, Albuquerque, NM, USA) and dose response curves, max efficacy and EC50 have been determined with GraphPrism 6 software (GraphPad Software, La Jolla, CA, USA). Areas under the curves (AUC) were calculated in Excel by summing all the OR responses at different concentrations for each odorant.

[4] = target: T2, OR2W1; experiment: Dual-Glo luciferase reporter gene assay, OR2W1 in Hana3A cells; assay type: cell-based; design: The open reading frames of ORs were amplified using Phusion polymerase; Rho-tag (first 20 amino acids of human rhodopsin) (N); expressed in transfected cells; host or cells: Hana3A cells (derived from HEK293T), pCI vector; co-transfected with human RTP1S, M3 receptor, CRE-Luc and SV40-RL; details: OR2W1; for normilazed value = (L-400/R-400): log[molecule], three replicates
Procedure: as §1, §2

[5] = log(agonist) vs. response (three parameters), 95% CI (profile likelihood), normalized (L-400/R-400)

Structure (SMILES): O=C(c1ccccc1)c1ccccc1 [Benzophenone]
- Class (agonist / non-agonist / conflicting info.) for OR1A1 [1]: agonist
- Class (agonist / non-agonist / antagonist / conflicting info.) for OR2W1 [2]: agonist
- Bottom [3, 5]: -1.851 to 2.543
- Top [3, 5]: 11.67 to 14.46
- normilazed value = (L-400/R-400) ([3]; log[molecule], M = -3.5): 7.459 and 7.533 and 8.1639
- normilazed value = (L-400/R-400) ([3]; log[molecule], M = -3.75): 11.5068 and 9.986 and 11.6353
- normilazed value = (L-400/R-400) ([3]; log[molecule], M = -4): 12.912 and 14.5062 and 13.7456
- normilazed value = (L-400/R-400) ([3]; log[molecule], M = -4.25): 14.2415 and 16.6502 and 17.5965
- normilazed value = (L-400/R-400) ([3]; log[molecule], M = -4.5): 12.7776 and 13.5787 and 13.5772
- normilazed value = (L-400/R-400) ([3]; log[molecule], M = -4.75): 11.0413 and 12.4085 and 13.0495
- normilazed value = (L-400/R-400) ([3]; log[molecule], M = -5): 8.171 and 9.262 and 9.035
- normilazed value = (L-400/R-400) ([3]; log[molecule], M = -5.25): 6.73 and 6.359 and 7.725
- normilazed value = (L-400/R-400) ([3]; log[molecule], M = -5.5): 4.815 and 4.814 and 5.195
- normilazed value = (L-400/R-400) ([3]; log[molecule], M = -5.75): 3.111 and 2.689 and 2.548
- normilazed value = (L-400/R-400) ([3]; log[molecule], M = -6): 2.109 and 2.273 and 2.067
- EC50 ([3]; three-parameter fit, 95% CI (profile likelihood)): 2.47 to 8.3 µM
- LogEC50 ([3]; three-parameter fit, 95% CI (profile likelihood), log[molecule], M): -5.608 to -5.081
- Bottom [4, 5]: 9.831 to 25.58
- Top [4, 5]: 33.11 to 38.76
- normilazed value = (L-400/R-400) ([4]; M = -3.5): 18.7324 and 22.6176 and 22.52
- normilazed value = (L-400/R-400) ([4]; M = -3.75): 27.3072 and 27.4246
- normilazed value = (L-400/R-400) ([4]; M = -4): 38.4836
- normilazed value = (L-400/R-400) ([4]; M = -4.25): 38.5091 and 37.4777
- normilazed value = (L-400/R-400) ([4]; M = -4.5): 37.1848 and 47.4935
- normilazed value = (L-400/R-400) ([4]; M = -4.75): 39.8168 and 41.5774 and 37.3522
- normilazed value = (L-400/R-400) ([4]; M = -5): 38.9191 and 40.737 and 39.7699
- normilazed value = (L-400/R-400) ([4]; M = -5.25): 38.6807 and 38.6347 and 47.5267
- normilazed value = (L-400/R-400) ([4]; M = -5.5): 41.7726 and 40.3216 and 44.1867
- normilazed value = (L-400/R-400) ([4]; M = -6): 27.5667 and 27.048
